Data published in US9718822B2, “Macrocyclic compounds as Trk kinase inhibitors” (Array BioPharma, Inc., priority 2010, dated 2017).
Where two headings read alike, the source gives them in different places.

Columns and labels:
[1] = target: His-tagged recombinant human TrkA (cytoplasmic domain) (Homo sapiens (Human), UniProt P04629); assay: TrkA Binding Assay (LanthaScreen Eu Kinase Binding Assay)
Protocol: The ability of a compound to bind to TrkA was measured by Invitrogen's LanthaScreen™ Eu Kinase Binding Assay. […] After a 60-minute incubation at 22° C., the reaction was measured using the EnVision via TR-FRET dual wavelength detection, and the POC was calculated from the emission ratio. The compound dose response data was fit to a 4-parameter logistic model and IC50 was defined as the concentration of compound at 50 POC.

[2] = target: histidine-tagged recombinant human TrkA, cytoplasmic domain (Homo sapiens (Human), UniProt P04629); assay: TrkA ELISA Assay; type: biochemical; details: read-out: TrkA Elisa Enzyme Assay IC50; note: 2.5 nM TrkA
Protocol: An enzyme-linked immunosorbant assay (ELISA) was used to assess TrkA kinase activity in the presence of inhibitors. Immulon 4HBX 384-well microtiter plates (Thermo part #8755) were coated with a 0.025 mg/mL solution of poly (Glu, Ala, Tyr; 6:3:1; Sigma P3899). […] The assay buffer consisted of 25 mM MOPS pH 7.5, 0.005% (v/v) Triton X-100 and 5 mM MgCl2. The reaction mixture was removed from the plate by washing with PBS containing 0.1% (v/v) Tween 20. The phosphorylated reaction product was detected using 0.2 μg/mL of a phosphotyrosine specific monoclonal antibody (clone PY20) conjugated to horseradish peroxidase in conjunction with the TMB Peroxidase Substrate System (KPL). After the addition of 1M phosphoric acid, the chromogenic substrate color intensity was quantitated via absorbance at 450 nm. IC50 values were calculated using either a 4 or 5-parameter logistic curve fit.
Table 1 provides averaged IC50 values for compounds of the invention when tested in this assay.

[3] = averaged IC50 values, TR-FRET, 60-minute incubation at 22° C., 2% DMSO final

histidine-tagged recombinant human TrkA, cytoplasmic domain, sequence (P04629 440-796): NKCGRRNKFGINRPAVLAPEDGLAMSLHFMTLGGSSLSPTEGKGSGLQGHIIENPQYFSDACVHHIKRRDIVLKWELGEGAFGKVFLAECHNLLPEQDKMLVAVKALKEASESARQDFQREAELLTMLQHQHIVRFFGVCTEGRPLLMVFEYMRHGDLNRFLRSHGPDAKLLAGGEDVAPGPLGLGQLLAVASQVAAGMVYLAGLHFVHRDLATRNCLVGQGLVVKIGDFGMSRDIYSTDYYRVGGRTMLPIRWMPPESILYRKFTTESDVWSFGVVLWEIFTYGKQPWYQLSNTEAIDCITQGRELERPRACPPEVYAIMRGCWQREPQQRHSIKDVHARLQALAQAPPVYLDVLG
His-tagged recombinant human TrkA (cytoplasmic domain), sequence (P04629 440-796): as above

Row | Compound | IC50 [2] [µM] | IC50 [1] [µM] | also measured
1 | O=C1NC[C@H](O)COc2ccc(F)cc2C2CC(F)(F)CN2c2ccn3ncc1c3n2 (single isomer, unassigned; diastereomer 1) [45 Diastereomer 1] | – | – | IC50 [1, 3]: 0.001 to 0.1 µM
2 | O=C1NC[C@H](O)COc2ccc(F)cc2C2CC(F)(F)CN2c2ccn3ncc1c3n2 (single isomer, unassigned; diastereomer 2) [45 Diastereomer 2] | – | – | IC50 [1, 3]: 0.001 to 0.1 µM
3 | O=C1NCCCOc2cccc(n2)[C@H]2CCCN2c2ccn3ncc1c3n2 [Example 2, (6R)-12-oxa-2,16,20,21,24,26-hexaazapentacyclo[16.5.2.1^7,11.0^2,6.0^21,25]hexacosa-1(24),7(26),8,10,18(25),19,22-heptaen-17-one] | 0.001 to 0.1 | 0.001 to 0.1 | –
4 | O=C1NCC(O)COc2ncc(F)cc2[C@H]2CCCN2c2ccn3ncc1c3n2 (stereo partly drawn) [Example 6, (6R)-9-fluoro-15-hydroxy-13-oxa-2,11,17,21,22,25-hexaazapentacyclo-[17.5.2.0^2,6.0^7,12.0^22,26]hexacosa-1(25),7,9,11,19(26),20,23-heptaen-18-one] | – | – | IC50 ([2]; averaged IC50 values, […] TrkA, 500 μM ATP, 25 minutes at ambient temperature): 0.001 to 0.1 µM; IC50 [1, 3]: 0.001 to 0.1 µM
5 | O=C1NC[C@@H](O)Cn2cc(F)cc(c2=O)[C@H]2CCCN2c2ccn3ncc1c3n2 [Example 8] | 0.001 to 0.1 | 0.001 to 0.1 | –
6 | O=C1NCCCCOc2ncc(F)cc2[C@H]2CCCN2c2ccn3ncc1c3n2 [Example 10, (6R)-9-fluoro-13-oxa-2,11,18,22,23,26-hexaazapentacyclo[18.5.2.0^2,6.0^7,12.0^23,27]heptacosa-1(26),7,9,11,20(27),21,24-heptaen-19-one] | 0.001 to 0.1 | 0.001 to 0.1 | –
7 | O=C1NCCCCn2cc(F)cc(c2=O)[C@H]2CCCN2c2ccn3ncc1c3n2 [Example 11, (6R)-9-fluoro-2,11,16,20,21,24-hexaazapentacyclo[16.5.2.1^7,11.0^2,6.0^21,25]hexacosa-1(24),7,9,18(25),19,22-hexaene-17,26-dione] | 0.001 to 0.1 | 0.001 to 0.1 | –
8 | O=C1NCCNc2ncc(F)cc2[C@H]2CCCN2c2ccn3ncc1c3n2 [Example 12, (6R)-9-fluoro-2,11,13,16,20,21,24-heptaazapentacyclo[16.5.2.0^2,6.0^7,12.0^21,25]pentacosa-1(24),7,9,11,18(25),19,22-heptaen-17-one] | 0.001 to 0.1 | – | –
9 | O=C1NCCCNc2ncc(F)cc2[C@H]2CCCN2c2ccn3ncc1c3n2 [Example 13, (6R)-9-fluoro-2,11,13,17,21,22,25-heptaazapentacyclo[17.5.2.0^2,6.0^7,12.0^22,26]hexacosa-1(25),7,9,11,19(26),20,23-heptaen-18-one] | 0.001 to 0.1 | – | –
10 | O=C1NC[C@@H](F)Cn2cc(F)cc(c2=O)[C@H]2CCCN2c2ccn3ncc1c3n2 [Example 17, (6R,13R)-9,13-difluoro-2,11,15,19,20,23-hexaazapentacyclo[15.5.2.1^7,11.0^2,6.0^20,24]pentacosa-1(23),7,9,17(24),18,21-hexaene-16,25-dione] | 0.001 to 0.1 | – | –
11 | O=C1NCC(F)(F)COc2ncc(F)cc2[C@H]2CCCN2c2ccn3ncc1c3n2 [Example 19, (6R)-9,15,15-trifluoro-13-oxa-2,11,17,21,22,25-hexaazapentacyclo[17.5.2.0^2,6.0^7,12.0^22,26]hexacosa-1(25),7,9,11,19(26),20,23-heptaen-18-one] | 0.001 to 0.1 | 0.001 to 0.1 | –
12 | Fc1ccc2c(c1)[C@H]1CCCN1c1ccn3ncc(c3n1)CNCCO2 [Example 21, (6R)-9-fluoro-13-oxa-2,16,20,21,24-pentaazapentacyclo[16.5.2.0^2,6.0^7,12.0^21,25]pentacosa-1(24),7,9,11,18(25),19,22-heptaene] | 0.1 to 3 | – | –
13 | CC(=O)N1CCOc2ccc(F)cc2[C@H]2CCCN2c2ccn3ncc(c3n2)C1 [Example 22, 1-[(6R)-9-fluoro-13-oxa-2,16,20,21,24-pentaazapentacyclo[16.5.2.0^2,6.0^7,12.0^21,25]pentacosa-1(24),7,9,11,18(25),19,22-heptaen-16-yl]ethan-1-one] | 0.001 to 0.1 | – | –
14 | Fc1ccc2c(c1)[C@H]1CCCN1c1ccn3ncc(c3n1)CNCCCO2 [Example 24, (6R)-9-fluoro-13-oxa-2,17,21,22,25-pentaazapentacyclo[17.5.2.0^2,6.0^7,12.0^22,26]hexacosa-1(25),7,9,11,19(26),20,23-heptaene] | 0.1 to 3 | – | –
15 | CS(=O)(=O)N1CCOc2ccc(F)cc2[C@H]2CCCN2c2ccn3ncc(c3n2)C1 [Example 25, (6R)-9-fluoro-16-methanesulfonyl-13-oxa-2,16,20,21,24-pentaazapentacyclo[16.5.2.0^2,6.0^7,12.0^21,25]pentacosa-1(24),7,9,11,18(25),19,22-heptaene] | 0.001 to 0.1 | – | –
16 | CS(=O)(=O)N1CCCOc2ccc(F)cc2[C@H]2CCCN2c2ccn3ncc(c3n2)C1 [Example 27, (6R)-9-fluoro-7-methanesulfonyl-13-oxa-2,17,21,22,25-pentaazapentacyclo[17.5.2.0^2,6.0^7,12.0^22,26]hexacosa-1(25),7,9,11,19(26),20,23-heptaene] | 0.001 to 0.1 | – | –
17 | CCNC(=O)N1CCCOc2ccc(F)cc2[C@H]2CCCN2c2ccn3ncc(c3n2)C1 [Example 28] | 0.001 to 0.1 | – | –
18 | CCNC(=O)N1CCOc2ccc(F)cc2[C@H]2CCCN2c2ccn3ncc(c3n2)C1 [Example 29, (6R)—N-ethyl-9-fluoro-13-oxa-2,16,20,21,24-pentaazapentacyclo-[16.5.2.0^2,6.0^7,12.0^21,25]pentacosa-1(24),7,9,11,18(25),19,22-heptaene-16-carboxamide] | 0.001 to 0.1 | – | –
19 | C[C@H]1CNC(=O)c2cnn3ccc(nc23)N2CCC[C@@H]2c2cc(F)cn(c2=O)C1 [Example 35, (6R,13S)-9-fluoro-13-methyl-2, 11, 15,19,20,23-hexaazapentacyclo [15.5.2.1^7,11.0^2,6.0^20,24]pentacosa-1(23),7,9,17(24),18,21-hexaene-16,25-dione] | – | 0.001 to 0.1 | –
20 | CC1(C)CNC(=O)c2cnn3ccc(nc23)N2CCC[C@@H]2c2cc(F)cnc2OC1 [Example 36, (6R)-9-fluoro-15,15-dimethyl-13-oxa-2,11,17,21,22,25-hexaazapentacyclo [17.5.2.0^2,6.0^7,12.0^22,26]hexacosa-1(25),7,9,11,19(26),20,23-heptaen-18-one] | – | 0.001 to 0.1 | –
21 | CC1(C)CNC(=O)c2cnn3ccc(nc23)N2CCC[C@@H]2c2cc(F)cn(c2=O)C1 [Example 40, (6R)-9-fluoro-13,13-dimethyl-2,11,15,19,20,23-hexaazapentacyclo [15.5.2.1^7,11.0^2,6.0^20,24]pentacosa-1(23),7,9,17(24),18,21-hexaene-16,25-dione] | – | 0.001 to 0.1 | –
22 | O=C1NC[C@H](O)COc2ccc(F)cc2[C@@H]2C[C@@H](O)CN2c2ccn3ncc1c3n2 [Example 41-B, (4R,6S,15S)-9-fluoro-4,15-dihydroxy-13-oxa-2,17,21,22,25-pentaazapentacyclo [17.5.2.0^2,6.0^7,12.0^22,26]hexacosa-1(25),7(12),8,10,19(26),20,23-heptaen-18-one] | – | – | IC50 [1, 3]: 0.1 to 3 µM
23 | O=C1NCCCOc2ccc(F)cc2[C@H]2C[C@@H](O)CN2c2ccn3ncc1c3n2 [Example 42, (4R,6R)-9-fluoro-4-hydroxy-13-oxa-2,17,21,22,25-pentaazapentacyclo [17.5.2.0^2,6.0^7,12.0^22,26]hexacosa-1(25),7(12),8,10,19(26),20,23-heptaen-18-one] | – | 0.001 to 0.1 | –
24 | O=C1NCCCOc2ccc(F)cc2[C@@H]2C[C@@H](O)CN2c2ccn3ncc1c3n2 [Example 42-B, (4R,6S)-9-fluoro-4-hydroxy-13-oxa-2,17,21,22,25-pentaazapentacyclo [17.5.2.0^2,6.0^7,12.0^22,26]hexacosa-1(25),7(12),8,10,19(26),20,23-heptaen-18-one] | – | – | IC50 [1, 3]: 0.1 to 3 µM
25 | O=C1NCCOc2ccc(F)cc2[C@H]2C[C@@H](O)CN2c2ccn3ncc1c3n2 [Example 43, (4R,6R)-9-fluoro-4-hydroxy-13-oxa-2,16,20,21,24-pentaazapentacyclo [16.5.2.0^2,6.0^7,12.0^21,25]pentacosa-1(24),7,9,11,18(25),19,22-heptaen-17-one] | – | 0.001 to 0.1 | –
26 | O=C1NCCOc2ccc(F)cc2[C@@H]2C[C@@H](O)CN2c2ccn3ncc1c3n2 [Example 43-B, (4R,6S)-9-fluoro-4-hydroxy-13-oxa-2,16,20,21,24-pentaazapentacyclo [16.5.2.0^2,6.0^7,2.0^21,25]pentacosa-1(24),7,9,11,18(25),19,22-heptaen-17-one] | – | – | IC50 [1, 3]: 0.1 to 3 µM
27 | O=C1NC[C@@H](O)COc2ccc(F)cc2[C@H]2C[C@@H](O)CN2c2ccn3ncc1c3n2 [Example 44, (4R,6R,15R)-9-fluoro-4,15-dihydroxy-13-oxa-2,17,21,22,25-pentaazapentacyclo [17.5.2.0^2,6.0^7,12.0^22,26]hexacosa-1(25),7(12),8,10,19(26),20,23-heptaen-18-one] | – | 0.001 to 0.1 | –
28 | O=C1NC[C@@H](O)COc2ccc(F)cc2[C@@H]2C[C@@H](O)CN2c2ccn3ncc1c3n2 [Example 44-B, (4R,6S,15R)-9-fluoro-4,15-dihydroxy-13-oxa-2,17,21,22,25-pentaazapentacyclo [17.5.2.0^2,6.0^7,12.0^22,26]hexacosa-1(25),7(2),8,10,19(26),20,23-heptaen-18-one] | – | 0.001 to 0.1 | –
